# Measured values as given in US10772856B2, “Compositions and methods of use of beta-hydroxy-beta-methylbutyrate (HMB) for decreasing fat mass” (Metabolic Technologies, Inc., priority 2015, dated 2020).
# Key:
# [1] = test system: Differentiated adipocytes; test: Gene expression by qPCR in differentiated adipocytes; format: cell-based; settings: 1 mM HMB, 4 days
# Description: Differentiated adipocytes were incubated for 4 days with 1 mM of HMB. RNA was extracted and gene expression was determined by qPCR. Gene expression for ATGL, ACOX, PGC1a, ATG7 and BNIP3 were analyzed. […] ATGL is highly expressed in adipose tissue of humans and mice. ACOX1, or acyl-CoA oxidase 1 is the first enzyme involved in peroxisomal fatty acid oxidation. This occurs when the fatty acid chains are too long to be handled by the mitochondria. The high-potential electrons generated are transferred to O2→H2O2 (+heat) which in the presence of catalase→H2O and O2. PGC1α is a key regulator of energy metabolism and is found to be very important in the development of brown adipose tissue which is the high energy yielding adipose tissue. Autophagy-related protein 7 (ATG7) regulates fat mass. Knocking ATG7 down will result in abnormal non-functional adipose tissue. Elevated levels increase tissue recycling. BNIP3 is another autophagy-related protein like ATG7 that appears to be significant. The gene expression results appear in FIG. 3.
# [2] = after HMB is fed; cited from earlier work
# 3T3-F442A adipocytes = test: Lipolysis (glycerol release) in 3T3-F442A adipocytes; format: cell-based, Murine; settings: 1 hour
# Description: Methods. Murine 3T3-F442A preadipocytes were grown until confluence. After confluence, 3T3-F442A cells were allowed to differentiate into adipocytes and become filled with triglycerides. Lipolysis was assessed as glycerol release from 3T3-F442A adipocytes in well plates. Adipocyte monolayers were incubated with Krebs-Ringer buffer containing Hepes (KRH), supplemented with 2% fatty acid-free BSA, 5 mM glucose, ADA and PIA. In addition, cells were treated with β-hydroxy-β-methylbutyrate (HMB) at either 0 (control), 0.1, 1, or 6 mM concentrations. Cells were incubated in the absence (Basal) or in the presence of 0.1 μM isoproterenol for 1 hour. Aliquots of the incubation medium were removed and frozen until glycerol determination. Glycerol was measured by a commercial enzymatic method. Data were presented as the fold increase over control. Results. […] Lipolysis in Human Subcutaneous Adipocytes Methods. Human subcutaneous adipocytes were obtained from donors and incubated in vitro. Lipolysis was assessed as glycerol release in well plates. Adipocyte were incubated with Krebs-Ringer buffer containing Hepes (KRH), supplemented with 4% fatty acid-free BSA, 5 mM glucose, ADA and PIA. In addition, cells were treated with β-hydroxy-β-methylbutyrate (HMB) at either 0 (control), 0.1, or 1 mM concentrations in the presence of 1.0 μM isoproterenol for 2 hours. Aliquots of the incubation medium were removed and frozen until glycerol determination. Glycerol was measured by a commercial enzymatic method. Data were presented as the fold increase over control. Results. […] Effect of HMB on Gene Expression in Differentiated Adipocytes SGBS human pre-adipocytes were differentiated into adipocytes and treated with 1 mM HMB for 4 days. The human Simpson-Golabi-Behmel syndrome (SGBS) preadipocyte cell strain cells originate from an adipose tissue specimen of a patient with GSBS. Microarrays (mRNAs) were performed. […] Similarly, cytokine receptor interaction and calcium signaling pathways are also elevated as measured by mRNAs.
# [3] = test system: Human subcutaneous adipocytes; test: Lipolysis (glycerol release) in human subcutaneous adipocytes; format: cell-based; settings: 1.0 μM isoproterenol, 2 hours
# Description: (§1) Methods. Murine 3T3-F442A preadipocytes were grown until confluence. After confluence, 3T3-F442A cells were allowed to differentiate into adipocytes and become filled with triglycerides. Lipolysis was assessed as glycerol release from 3T3-F442A adipocytes in well plates. Adipocyte monolayers were incubated with Krebs-Ringer buffer containing Hepes (KRH), supplemented with 2% fatty acid-free BSA, 5 mM glucose, ADA and PIA. In addition, cells were treated with β-hydroxy-β-methylbutyrate (HMB) at either 0 (control), 0.1, 1, or 6 mM concentrations. Cells were incubated in the absence (Basal) or in the presence of 0.1 μM isoproterenol for 1 hour. Aliquots of the incubation medium were removed and frozen until glycerol determination. Glycerol was measured by a commercial enzymatic method. Data were presented as the fold increase over control. Results. […] Lipolysis in Human Subcutaneous Adipocytes Methods. Human subcutaneous adipocytes were obtained from donors and incubated in vitro. Lipolysis was assessed as glycerol release in well plates. Adipocyte were incubated with Krebs-Ringer buffer containing Hepes (KRH), supplemented with 4% fatty acid-free BSA, 5 mM glucose, ADA and PIA. […] Glycerol was measured by a commercial enzymatic method. […] Similarly, cytokine receptor interaction and calcium signaling pathways are also elevated as measured by mRNAs.
# [4] = test system: Differentiated human adipocytes (SGBS); test: Phosphokinase protein array of SGBS adipocytes; format: cell-based; settings: 1 mM HMB, 4 days, vs untreated cells
# Description: This approach was used to determine in non-biased way changes in protein phosphorylation that are known to influence activity of important signaling proteins. Differentiated human adipocytes were treated for 4 days with or without HMB (1 mM). Shown are only the significant increases above untreated cells in phosphorylation of the listed protein at the indicated phosphorylation site(s).
# [5] = healthy young or old adults; cited from earlier work
# OP9 adipocytes = test: Basal and isoproterenol stimulated lipolysis in differentiated OP9 adipocytes; format: cell-based
# Description: As noted above, an increase in expression of ATGL in cells treated with HMB was observed, so the effect of HMB treatment on basal and isoproterenol stimulated lipolysis was determined directly in cultured adipocytes. The protocol of Viswanadha and Londos was used for optimization of conditions for measuring lipolysis in murine primary adipoctyes (J. Lipid Res. 2006. 47: 1859-1864) that include treatment with adenosine deaminase (ADA) to remove endogenous adenosine and then addition of ADA resistant PIA (phenylisopropyl-adenosine).
# The following treatment strategies were tested: HMB doses of 0.1, 1 and 6 mM; 2 concentrations of the beta-adrenergic agonist isoproterenol 0.1 and 1 uM, and short term (immediately before lipolysis assay) vs. long term (48 h) HMB treatment (n=4 per treatment). Op9 adipocytes were used as SGBS cells take a long time (several weeks) to differentiate making them inconvenient to use.
# Cells were pre-treated with varying concentrations of HMB in OP9 growth medium for 48 hrs. Following pre-treatment, cells were washed and incubated with Isoproterenol (0.1 or 1.0 uM) in lipolysis buffer: Krebs ringer bicarbonate (KRB) with 4% BSA. The medium also contained adenosine deaminase (ADA) and phenyl-isopropyl-adenosine (PIA) for 2 hrs at 37° C. ADA was added to remove endogenous adenosine and PIA, which is resistant to ADA, was used to have low standardized basal lipolysis. Following treatment, media was assayed for glycerol content and cells were lysed with RIPA buffer to determine protein concentration, *p<0.05, ** p<0.01. N=4.
# [6] = test system: SGBS human pre-adipocytes differentiated into adipocytes; test: Microarray (mRNA) pathway analysis in differentiated SGBS adipocytes; format: cell-based; settings: 1 mM HMB for 4 days
# Description: as §1
# [7] = after administration; cited from earlier work
# skeletal muscle = settings: acute ingestion of 2.4 grams; cited from earlier work
smiles,measurement,setting,value
"CC(C)(O)CC(=O)O [HMB, β-hydroxy-β-methylbutyric acid]",expression of ATGL,[1],increase
same,loss of HMB to urine,[2],20-50%
same,"lipolysis (glycerol release, fold increase over control)","3T3-F442A adipocytes; 0.1 μM isoproterenol stimulation, 0.1 mM HMB",increased lipolysis
same,"lipolysis (glycerol release, fold increase over control)","3T3-F442A adipocytes; 0.1 μM isoproterenol stimulation, 6.0 mM HMB",decreased lipolysis
same,"lipolysis (glycerol release, fold increase over control)","3T3-F442A adipocytes; basal, 0.1 mM HMB",increased lipolysis above control
same,"lipolysis (glycerol release, fold increase over control)","3T3-F442A adipocytes; basal, 1 mM HMB",increased lipolysis above control
same,"lipolysis (glycerol release, fold increase over control)","3T3-F442A adipocytes; basal, 6.0 mM HMB",decreased lipolysis
same,"lipolysis (glycerol release, fold increase over control)",[3]; 0.1 mM HMB,increased lipolysis above that of control
same,"lipolysis (glycerol release, fold increase over control)",[3]; 1 mM HMB,increased lipolysis above that of control
same,"Fold Change with HMB, phosphorylation of CREB S133",[4],1.233 Fold
same,"Fold Change with HMB, phosphorylation of FGR Y412",[4],1.262 Fold
same,"Fold Change with HMB, phosphorylation of Fyn Y420",[4],1.400 Fold
same,"Fold Change with HMB, phosphorylation of GSK-3a/b S21/S9",[4],1.255 Fold
same,"Fold Change with HMB, phosphorylation of Lyn Y397",[4],1.335 Fold
same,"Fold Change with HMB, phosphorylation of P53 S46",[4],0.834 Fold
same,"Fold Change with HMB, phosphorylation of RSK1/2/3 S380/S386/S377",[4],0.732 Fold
same,"Fold Change with HMB, phosphorylation of STAT5a/b Y694/Y699",[4],0.804 Fold
same,"Fold Change with HMB, phosphorylation of Yes Y426",[4],1.224 Fold
same,"Fold Change with HMB, phosphorylation of p53 S15",[4],0.621 Fold
same,change in AKT1/2/3 at Threonine 308,[4],no change
same,side effects,[5],no side effects
same,enhancement of lipolysis in response to isoproterenol,"OP9 adipocytes; 0.1 mM HMB 48 h pre-treatment, 0.1 uM isoproterenol",2 fold
same,increase of lipolysis over no HMB,"OP9 adipocytes; 1 mM HMB 48 h pre-treatment, 0.1 uM isoproterenol",4 fold
same,enhancement of lipolysis response to isoproterenol,"OP9 adipocytes; 6 mM HMB 48 h pre-treatment, 0.1 uM isoproterenol",3 fold
same,increase of basal lipolysis,"OP9 adipocytes; HMB pretreatment, ADA followed by PIA, no isoproterenol",about 2 fold
same,enhancement of isoproterenol-stimulated lipolysis (glycerol),"OP9 adipocytes; pre-treatment with HMB for 48 h, all HMB doses",2-4 fold
same,Effect on pathway: IL6 signaling (mRNA microarray),[6],2.53 fold
CC(C)(O)CC(=O)O [HMB-FA],plasma levels of HMB compared with calcium HMB,[7],approximately double
same,time to plasma levels compared with calcium HMB,[7],about one-quarter the time
same,"protein breakdown, change",skeletal muscle,−56%
same,"skeletal muscle protein synthesis, change",skeletal muscle,+70%
"CC(C)NCC(O)c1ccc(O)c(O)c1 (centres unmarked) [isoproterenol, reference compound]",maximal lipolysis,OP9 adipocytes; higher concentrations of isoproterenol (1.0 vs 0.1 uM),reduced maximal lipolysis
